Experimental data reported in patent US20080269163A1, “Methods and Compositions for Protecting Cells from Ultrasound-Mediated Cytolysis” (priority 2004, published 2008).
Entries after “also recorded” stand apart in the source; their conditions may differ.

Legend:
HL-60 cells [1] = assay: Exposure of HL-60 cells to glucopyranosides alone (no ultrasound); conditions: 15 minute exposure at highest concentrations used
Method: Cell experiments were completed within 5 to 10 minutes of adding the glucopyranosides to the cell suspensions, and each data point represents an average ±SEM, where n=5 to 8. […] For this reason, we only studied the effects of MGP, HGP, HepGP and OGP on the ultrasound induced cytolysis of HL-60 cells.

various cells = conditions: approximately 7 mM to 30 mM OGP for up to 30 minutes; cited from earlier work
HL-60 cells [2] = assay: Mechanical fragility test (Burrell wrist action shaker, glass beads), HL-60 cells; format: cell-based
Method: 10 ml borosilicate glass beads in a 125 ml conical flask. 10 ml cell suspension in the presence and absence (control) of various glucopyranosides (HGP, HepGP, MGP, and OGP) in a cell culture medium containing 10% DPBS solution. Shaking was conducted over a period of 30 minutes. Each data point represents ±SD, where n=5.
Mechanical Fragility Test: the effect of glucopyranosides on the mechanical fragility of the cells was determined by inducing mechanical shear stress to a cell suspension. This involved placing 10 mL of HL-60 cells in suspension in 125 ml sized screw capped conical flasks containing 10 mL of borosilicate solid-glass beads (Sigma-Aldrich, mean particle diameter of 3 mm), similar to the methods described elsewhere (Carstensen, E. L. et al. 1993; Miller, M. W. et al. 2003). The samples were then shaken in a Burrell wrist action shaker (model number 75, Burrell Scientific, Pittsburgh, Pa.) at 50% power for a duration of 30 minutes. Using this method, up to eight sample solutions could be run at one time. […] In samples containing glucopyranosides, the surfactant was dissolved in 1 ml of DPBS and added to 9 ml of the cell suspension.

HL-525 cells [3] = assay: Mechanical fragility of HL-525 cells; format: cell-based; conditions: OGP 3 mM
Method: Conditions: 50% power, 30 min. shaking, 10 mL borosilicate glass beads, 10 mL cell suspension.

HL-60 cells [4] = assay: Reproduction assay of HL-60 cells following sonolysis; format: cell-based; conditions: sonolysis, 5 seconds, 10 W; varying concentrations
Method: Cells were allowed to reproduce for 24 hours. Reproduction fraction ±SD (where n=6 to 8) is calculated by dividing the number of cells counted following 24 hours of reproduction by the number of cells counted at the start of incubation.
Control data points were run in triplicate with a standard deviation of less than 10%. Sonolysis points represent an average of six separate cell suspensions, with a standard deviation of less than 10%.
The reproduction ratio is the number of cells present one or two days post treatment divided by the number of cells present on the treatment day.
Reproduction Assay: for FIG. 5, a reproduction assay was conducted over a period of 10 days to determine the long term viability of cells following ultrasound treatment in the presence of either HGP or OGP at concentrations where 100% protection from cytolysis occurred. The long term viability of treated cell suspensions was compared to the long term viability of untreated control cell suspensions held under exactly the same conditions (FIG. 5). Immediately following sonolysis, a 100 μl aliquot of the 1 ml treated (or control) samples was used for Coulter counter analysis in order to confirm that 100% of the cells had survived the ultrasound treatment. Viability of the cells was determined by using a very small volume (approx. 20 μl) of suspension for trypan blue staining. The remaining ≈0.9 ml cell suspensions were diluted to 3 ml with fresh medium, centrifuged, washed with fresh medium, and finally re-suspended in fresh medium (2 ml). 100 μl of this new 2 ml of cells suspended in fresh medium was then used to determine the cell concentration. This cell concentration is defined as ‘the cell concentration at Day 0 after ultrasound treatment’ (Ci). Cell suspensions were then kept at 37° C. in a 5% CO2 incubator for a total of 10 days.
Over the 10 day period, cells had to be spun down occasionally and re-suspended in fresh medium to replenish the nutrients necessary for a healthy cell population. 100 μl aliquots of the original cell suspension were used to measure the cell concentration both before (Cfinal) and following (Cinitial) re-suspension in fresh medium. This procedure, although necessary, results in a slight underestimation in the expected number of cells on any given day, when compared to the original cell concentration, Ci. To account for this small, but significant underestimation, we calculated the actual number of cells that would have been observed had we not been periodically extracting small aliquots for the detection of cell numbers by the Coulter counter. This was done by calculating a ‘reproduction ratio’, determined by dividing Cfinal by Cinitial that was measured one or two days earlier and comparing this ratio to (Ci), to give a ‘real cell population’. It should be noted that this calculation is done simply as a matter of convenience and that the reproduction ability of the treated samples was compared to control samples that were treated in the same way over the day period, as shown in FIG. 5. Verification of this method is given by the fact that the cells of the control samples double approximately every day (FIG. 5), as expected for HL-60 cells under the conditions of incubation in the current study.

HL-525 cells [5] = assay: Sonolysis of HL-525 cells, % cytolysis; format: cell-based; conditions: 5 sec
Method: Conditions: 42 kHz, 50% power, 5 sec, 20° C., % cytolysis ±SD (n=6).
Conditions: 354 kHz, 15 W, 5 sec, 20° C., % cytolysis ±SD (n=6).
Conditions: 614 kHz, 20 W, 5 sec, 20° C., % cytolysis ±SD (n=6).
Conditions: 1057 kHz, 10 W, 5 sec, 20° C., % cytolysis ±SD (n=6).

HL-60 cells [6] = assay: Ultrasound-induced cytolysis of HL-60 cells, Coulter counter analysis; format: cell-based; conditions: HL-60 cells
Method: Cells: HL-60 myeloid leukemia cells (American Type Culture Collection) were grown in a suspension of RPMI 1640 medium (GIBCO, Gaithersburg, Md.) containing 10% calf serum. The population of HL-60 cells doubled every 23±1 hr (hour ±SEM) when incubated at 37° C. in a CO2 (5%) containing atmosphere. Cells were harvested, re-suspended in fresh RPMI medium and kept at 25° C. until the start of the experiment (typically less than 1 hr). […] The fraction of intact cells before and after ultrasound was determined using a Coulter multisizer (model IIe) connected to a sampling stand (model IIa). The number of intact cells was determined by counting the total number of particles under the bell shaped curve (e.g., FIG. 1a) before and following sonolysis. The cytolysis percentage was determined by subtracting the number of intact cells following sonolysis from the number of intact cells before sonolysis. This value was divided by the number of intact cells before sonolysis and multiplied by 100 to obtain the cytolysis percentage value.
The temperature of the coupling water was 25° C.
We have confirmed the validity of this technique for studying the effects of sonolysis in our ultrasound system by the trypan blue exclusion assay. The mean size of HL-60 cells was determined from the Coulter counter results prior to sonolysis and was approximately 650 μm3 (FIG. 1a) which equates to a mean cell diameter of […].
42 kHz sonolysis was conducted in a similar way but using a Branson ultrasound bath (model number 1510). […] At 42 kHz, a transducer was used to decrease the power of the bath to 50% of its original value. The temperature of the coupling water at all frequencies was 25° C.
(§1) The percentage of cytolysis of HL-60 cells was determined by measurement of the cell size distribution using a Coulter multisizer. This method correlates well with percentage cytolysis measured using the Trypan blue exclusion assay immediately following sonolysis and is explained in detail elsewhere (Miyoshi, N. et al. 2003). […] This immediate ultrasound induced cytolysis (i.e., % cytolysis) is represented in FIGS. 2, 10-12 at a concentration of zero.
42 kHz sonolysis was conducted in a similar way but using a Branson ultrasound bath (model number […]). […] At 42 kHz, a transducer was used to decrease the power of the bath to 50% of its original value. The temperature of the coupling water at all frequencies was 25° C.
as §1, with “represented” for “represented in FIGS. 2, 10-12”

effect on reproduction rate of the cells over 120 hours (HL-60 cells [1]): no detrimental effect
Compound: CCCCCCCCO[C@@H]1O[C@H](CO)[C@@H](O)[C@H](O)[C@H]1O [OGP, octyl-β-D-Glucopyranoside]
cytolytic effects (various cells): no cytolytic effects observed
protection from mechanical induced cytolysis (HL-60 cells [2]; 30 min shaking, 50% power, HGP 1-10 mM, HepGP 0.1-10 mM, MGP 10-30 mM, OGP 0.3-3 mM): none of the glucopyranosides tested
effect on mechanical destruction of cells (HL-60 cells [2]; OGP 3 mM): no effect
effect on mechanical destruction of cells (HL-525 cells [3]): significant effect on enhancing mechanical destruction
reproductive viability (reproduction fraction) over 24 hours after sonolysis (HL-60 cells [4]): continue to reproduce at the same rate as untreated control samples
protective effect for HL-525 cells compared to HL-60 cells (HL-525 cells [5]; 1 MHz (1057 kHz), 10 W): different protection effects; also recorded: smaller protective effect
protective effect for HL-525 cells compared to HL-60 cells (HL-525 cells [5]; 614 kHz, 20 W): much less pronounced; also recorded: smaller protective effect
effect on ultrasound induced cytolysis (% cytolysis) (HL-60 cells [6]; 1.057 MHz (1 MHz), 10 W, 5 s): fully protects
concentration giving complete (approximately 100%) protection from ultrasound induced cytolysis (HL-60 cells [6]; 1.057 MHz (1 MHz), 10 W, 5 s, air exposed): 2 mM
effect on ultrasound induced cytolysis (HL-60 cells [6]; 42 kHz, 50% power, 5 s): very small sonosensitization; also recorded: weak sonosensitizer
effect on ultrasound induced cytolysis (HL-60 cells [6]; 354 kHz, 15 W, 5 s): weak sonosensitizer
cell population protected from cytolysis (HL-60 cells [6]; 614 kHz): 50%
change of protection from cytolysis as frequency is decreased (HL-60 cells [6]; frequency decreased from 1 MHz to 42 kHz): less effective; also recorded: most affected by the frequency of sonolysis
